In publication PMC6499371 (Chemical communications (Cambridge, England), 2019):

Target: T1, porcine trehalase (Sus scrofa, UniProt I3LIR5)
T1 sequence (I3LIR5 24-556): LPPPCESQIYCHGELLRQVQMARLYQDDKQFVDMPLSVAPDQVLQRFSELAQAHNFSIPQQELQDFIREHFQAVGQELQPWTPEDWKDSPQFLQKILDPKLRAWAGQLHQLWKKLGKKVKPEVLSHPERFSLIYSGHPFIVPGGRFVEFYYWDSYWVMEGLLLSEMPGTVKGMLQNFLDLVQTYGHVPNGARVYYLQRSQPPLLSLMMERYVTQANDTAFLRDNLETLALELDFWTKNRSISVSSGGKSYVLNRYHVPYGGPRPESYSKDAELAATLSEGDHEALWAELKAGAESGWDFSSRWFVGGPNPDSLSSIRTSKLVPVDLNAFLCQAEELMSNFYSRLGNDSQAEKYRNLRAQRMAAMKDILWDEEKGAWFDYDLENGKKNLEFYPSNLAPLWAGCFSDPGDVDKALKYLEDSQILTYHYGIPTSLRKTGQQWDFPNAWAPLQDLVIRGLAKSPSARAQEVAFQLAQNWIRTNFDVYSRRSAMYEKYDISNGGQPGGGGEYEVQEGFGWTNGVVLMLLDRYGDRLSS
Test: UV spectrophotometric coupled assay of trehalose hydrolysis
Type: biochemical

IC50: 1130 µM
SMILES: OC[C@H]1O[C@H](O[C@H]2O[C@H](CO)[C@@H](O)[C@H](O)[C@H]2O)[C@@H](O)[C@@H](O)[C@@H]1O [compound 2, mannotrehalose]
